Assay results from patent US20260272934A1 (The United States of America, as represented by the …, priority 2023, published 2026).
Read-outs that look alike come from different tables or passages of the source.

Columns and labels:
[1] = system: multiple myeloma-derived L363 cells; experiment: Colorimetric MTS cell viability assay; format: cell-based; details: for Cell efficacy (GI50) Mean ± SD: N.S. = Not significant; for GI50: Homo sapiens, L-363, N.S. = Not significant, read-out: Cell efficacy (GI50) Mean ± SD
From the text: • *Data from Park, J. E., et al {Park, 2023 #3387}. **Data from Alverez C. N., et al {Alverez, 2020 #3186}. N. S., Not significant; N. D., Not determined. ^a IC50 values determined from at least three independent experiments except as noted in parentheses. b A colorimetric MTS cell viability assay carried out using multiple myeloma-derived L363 cells.

Plk2 PBD = experiment: FP-based inhibition assay; format: binding; details: N.S. = Not significant
Experimental: (§1) In the following, PBD1-3 fluorescence polarization (FP) binding assays were carried out for determining the Plk1 specificity. FP assays were carried out essentially as described previously {Liu, 2011 #2790; Qian, 2014 #1416}. All samples were analyzed approximately 30 min after reaction in a 384-well format using the SpectraMax Paradigm multi-mode microplate detection platform (Molecular Devices). Data were analyzed after carrying out at least three independent experiments using GraphPad Prism software version 7.

Plk3 PBD = experiment: FP-based inhibition assay; format: binding; details: N.S. = Not significant
Experimental: as §1

[2] = system: multiple myeloma-derived L363 cells; details: MTS, *Data from Park, J. E., cited from earlier work
PBD1 = PBD1 (Homo sapiens, UniProt P53350); experiment: FP-based inhibition assay; format: binding; details: read-out: PBD1 IC50 ± SD
PBD1, sequence (P53350 371-594 limits assumed): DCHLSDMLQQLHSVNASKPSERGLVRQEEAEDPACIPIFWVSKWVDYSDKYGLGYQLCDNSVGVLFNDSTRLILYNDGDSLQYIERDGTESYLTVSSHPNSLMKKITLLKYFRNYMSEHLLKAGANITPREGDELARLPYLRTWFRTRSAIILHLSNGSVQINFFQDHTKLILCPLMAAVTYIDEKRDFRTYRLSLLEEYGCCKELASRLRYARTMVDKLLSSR
Experimental: as §1, with “FP assays were carried out essentially as described previously {Liu, 2011 #2790; Qian, 2014 #1416}.” left out

[3] = target: T1, full-length Plk1 / biotinylated PBIP1 phospho-T78 peptide interaction (Homo sapiens, UniProt P53350); details: *Data from Park, J. E., et al 2023; read-out: ELISA (IC50) Mean ± SEM; cited from earlier work
T1 construct: HA; EGFP; expressed in transfected cells; host or cells: HEK293A cells infected with adenovirus; total lysates
T1 sequence (P53350 whole entry): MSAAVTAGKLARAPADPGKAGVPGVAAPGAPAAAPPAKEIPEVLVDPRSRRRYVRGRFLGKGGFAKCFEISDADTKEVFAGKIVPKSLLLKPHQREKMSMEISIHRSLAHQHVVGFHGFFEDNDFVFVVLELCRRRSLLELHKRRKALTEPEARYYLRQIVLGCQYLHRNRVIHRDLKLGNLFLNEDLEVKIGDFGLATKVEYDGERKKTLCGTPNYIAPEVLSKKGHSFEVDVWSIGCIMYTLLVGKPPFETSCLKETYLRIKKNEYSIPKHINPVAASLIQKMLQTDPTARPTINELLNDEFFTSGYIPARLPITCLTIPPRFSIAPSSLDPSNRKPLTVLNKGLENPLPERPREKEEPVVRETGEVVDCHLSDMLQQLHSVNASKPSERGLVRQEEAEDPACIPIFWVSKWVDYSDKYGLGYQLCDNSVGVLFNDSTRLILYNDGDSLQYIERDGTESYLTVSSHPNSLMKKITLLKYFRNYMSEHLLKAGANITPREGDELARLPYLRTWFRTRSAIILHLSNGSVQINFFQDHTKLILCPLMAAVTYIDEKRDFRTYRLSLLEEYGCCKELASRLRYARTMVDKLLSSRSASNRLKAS

[4] = *Data from Park, J. E., et al 2023; cited from earlier work
[5] = target: T1, full-length Plk1 / biotinylated PBIP1 phospho-T78 peptide interaction; experiment: ELISA-based PBD1-binding inhibition assay; details: at least three independent experiments; read-out: ELISA (IC50) Mean ± SEM
[6] = Solubility remark in Table 1; format: physicochemical

For `CC(=O)N1CCC[C@H]1C(=O)N[C@@H](CC(C)C)C(=O)N[C@@H](Cc1cnc[nH]1)C(=O)N[C@@H](CO)C(=O)N[C@H](C(=O)O)[C@@H](C)O` [Compound 1, PLHST, reference compound], which “Cell efficacy (GI50) Mean ± SD” value [1] is on record?
Its value is “N.S”.

What does the source list for `CC(=O)N1CCC[C@H]1C(=O)N[C@@H](CC(C)C)C(=O)N[C@@H](Cc1cnc[nH]1)C(=O)N[C@@H](CO)C(=O)N[C@H](C(=O)O)[C@@H](C)OP(=O)(O)O` [Compound 2, PLHSpT, reference compound]?
Cell efficacy (GI50) Mean ± SD [1]: N.S.; Plk2 PBD IC50 ± SD (Plk2 PBD): N.S.; Plk3 PBD IC50 ± SD (Plk3 PBD): N.S.

Which “Cell efficacy (GI50) Mean ± SD” value ([2]; et al 2023) does the source give for `CCCn1c(=O)c2sc(C)cc2n2c(=S)[nH]nc12` [Compound 3] here?
The value was “N.S”.

And the IC50 (PBD1)?
The IC50 was 0.0102 ± 0.0015 µM.

What about the IC50 [3] of the same compound?
The IC50 was 2.15 ± 0.13 µM.

And the “Plk2 PBD IC50 ± SD” value (Plk2 PBD)?
Its value is “N.S”.

And the “Plk3 PBD IC50 ± SD” value (Plk3 PBD)?
Its value is “N.S”.

Which “solubility” value [4] does the source give for `CCCn1c(=O)c2sc(C)cc2n2c(Sc3c([N+](=O)[O-])ncn3C)nnc12` [Compound 4] here?
The value was “low solubility”.

And the GI50 ([2]; et al 2023, read-out: Cell efficacy (GI50) Mean ± SD)?
The GI50 was 4.88 ± 0.1 µM.

What about the IC50 [3] of the same compound?
The IC50 was > 50 µM.

Which IC50 [5] does the source give for `Cc1cc2c(s1)c(=O)n(CC1CC1)c1n[nH]c(=S)n21` [Compound 5, 4-(Cyclopropylmethyl)-7-methyl-1-thioxo-2,4-dihydrothieno[2,3-e][1,2,4]triazolo[4,3-a]pyrimidin-5 (1H)-one] here?
The IC50 was 1.66 ± 0.04 µM.

And the IC50 (PBD1)?
The IC50 was 0.0128 ± 0.0026 µM.

And the “Cell efficacy (GI50) Mean ± SD” value [1]?
Its value is “N.S”.

What about the “Plk2 PBD IC50 ± SD” value (Plk2 PBD) of the same compound?
The value was “N.S”.

What about the “Plk3 PBD IC50 ± SD” value (Plk3 PBD) of the same compound?
The value was “N.S”.

What does the source list for `Cc1cc2c(s1)c(=O)n(CC1CC1)c1nnc(Sc3c([N+](=O)[O-])ncn3C)n21` [Compound 6, 4-(Cyclopropylmethyl)-7-methyl-1-((1-methyl-4-nitro-1H-imidazol-5-yl)thio) thieno[2,3-e][1,2,4]triazolo[4,3-a]pyrimidin-5 (4H)-one]?
IC50 [5]: > 50 µM; solubility [6]: low solubility; GI50 [1]: 3.13 ± 0.15 µM

For `CCCn1c(=O)c2oc3ccccc3c2n2c(Sc3c([N+](=O)[O-])ncn3C)nnc12` [Compound 8, 1-((1-Methyl-4-nitro-1H-imidazol-5-yl)thio)-4-propylbenzofuro[2,3-e][1,2,4]triazolo[4,3-a]pyrimidin-5(4H)-one], which IC50 [5] is on record?
Its IC50 is > 50 µM.

And the GI50 [1]?
Its GI50 is 8.31 ± 0.56 µM.

Which results are given for `CCCn1c(=O)c2oc3cccc(F)c3c2n2c(Sc3c([N+](=O)[O-])ncn3C)nnc12` [Compound 10, 10-Fluoro-1-((1-methyl-4-nitro-1H-imidazol-5-yl)thio)-4-propylbenzofuro[2,3-e][1,2,4]triazolo[4,3-a]pyrimidin-5 (4H)-one]?
IC50 [5]: > 50 µM; GI50 [1]: 7.53 ± 0.43 µM

Which IC50 [5] does the source give for `CCCn1c(=O)c2sccc2n2c(Sc3c([N+](=O)[O-])ncn3C)nnc12` [Compound 12, 1-((1-Methyl-4-nitro-1H-imidazol-5-yl)thio)-4-propylthieno[2,3-e][1,2,4]triazolo[4,3-a]pyrimidin-5 (4H)-one] here?
The IC50 was > 50 µM.

What about the “solubility” value [6] of the same compound?
Its value is “moderate solubility”.

What about the GI50 [1] of the same compound?
The GI50 was 8.4 ± 0.74 µM.

With `CCCn1c(=O)c2sc(Cl)cc2n2c(Sc3c([N+](=O)[O-])ncn3C)nnc12` [Compound 14, 7-Chloro-1-((1-methyl-4-nitro-1H-imidazol-5-yl)thio)-4-propylthieno[2,3-e][1,2,4]triazolo[4,3-a]pyrimidin-5 (4H)-one] as the compound, how does the IC50 [5] read?
The IC50 was > 50 µM.

What about the GI50 [1] of the same compound?
The GI50 was 6.04 ± 0.17 µM.

Which IC50 [5] does the source give for `CCCn1c(=O)c2sc(C(C)(C)C)cc2n2c(Sc3c([N+](=O)[O-])ncn3C)nnc12` [Compound 16, 7-(tert-Butyl)-1-((1-methyl-4-nitro-1H-imidazol-5-yl)thio)-4-propylthieno[2,3-e][1,2,4]triazolo[4,3-a]pyrimidin-5 (4H)-one] here?
The IC50 was > 50 µM.

And the “solubility” value [6]?
The value was “moderate solubility”.

What about the GI50 [1] of the same compound?
Its GI50 is 4.19 ± 0.15 µM.

With `CCCn1c(=O)c2sc3ccccc3c2n2c(Sc3c([N+](=O)[O-])ncn3C)nnc12` [Compound 18, 1-((1-Methyl-4-nitro-1H-imidazol-5-yl)thio)-4-propylbenzo[4,5]thieno[2,3-e][1,2,4]triazolo[4,3-a]pyrimidin-5 (4H)-one] as the compound, how does the IC50 [5] read?
The IC50 was > 50 µM.

What about the GI50 [1] of the same compound?
The GI50 was 7.05 ± 0.27 µM.

For `O=C(CCCCC1SCC2NC(=O)NC21)NCCOCCOCCOCCOCCC(=O)NCCCn1c(=O)c2cc(F)ccc2n2c(=S)[nH]nc12` (centres unmarked) [Compound 22, N-(3-(7-Fluoro-5-oxo-1-thioxo-1,2-dihydro-[1,2,4]triazolo[4,3-a]quinazolin-4 (5H)-yl)propyl)-1-(5-(2-oxohexahydro-1H-thieno[3,4-d]imidazol-4-yl)pentanamido)-3,6,9,12-tetraoxapentadecan-15-amide], which IC50 [5] is on record?
Its IC50 is 9.32 ± 0.17 µM.
